Test results: article PMC10573892, “β-Lactam TRPM8 Antagonists Derived from Phe-Phenylalaninol Conjugates: Structure–Activity Relationships and Antiallodynic Activity” (International Journal of Molecular Sciences, 2023)

Tests used:
[1] = molecular target: T1, rat TRPM8 channel (rTRPM8) (Rattus norvegicus, UniProt Q8R455); test: Ca2+ microfluorimetry, menthol-induced Ca2+ entry in HEK293 cells overexpressing rTRPM8; format: cell-based; conditions: Table 3; rTRPM8, HEK293, activation by 100 µM menthol
T1 construct: expressed in transfected cells
Description: The diastereomeric 1,4,4-trisubstitutes β-lactams were evaluated as modulators of the TRPM8 channel by calcium microfluorimetry assays. These assays use a Human Embryonic Kidney 293 (HEK293) cell line that stably overexpressed rat TRPM8 channel (rTRPM8). […] Three separated experiments in triplicate were used.
The initial biological evaluation of this series of 1,3,4,4-tetrasubstituted β-lactams was performed by calcium microfluorimetry assays using the indicated HEK293 cell line overexpressing rTRPM8 channels.
(§1) Calcium fluorometry, Patch-Clamp assays and in vivo experiments were performed using the methodology previously described for TRPM8 [35] or TRPM3 [61]. In the Patch -Clamp experiments, the intracellular pipette solution contained (in mM) 140 KCl, 5 EGTA, and 10 mM HEPES, adjusted to pH 7.2 with KOH, and the extracellular solution contained (in mM) 140 NaCl, 2 CaCl2, 1 MgCl2, 10 D-glucose and 10 HEPES, adjusted to pH 7.4 with NaOH. Selectivity against TRPV1, TRPV3, TRPA1 and ASIC3 was subcontracted to Eurofins-CEREP or Eurofins-PANLABS (see ref. [35] for more details).

rTRPM8 = molecular target: T2, rTRPM8 (Rattus norvegicus, UniProt Q8R455); test: Patch-Clamp electrophysiology on single HEK293 cells expressing rat TRPM8; format: cell-based; conditions: activation by 100 µM menthol; holding voltage −60 mV
T2 construct: expressed in transfected cells
Excerpt: A recent research study using Patch-Clamp, among other techniques, established that menthol occupies a cavity within the TRPM8 S1–S4 transmembrane helix, with the OH group forming an H-bond with the δ-NH of R842 residue, and Van der Waals interactions among the methyl groups of the ^iPr moiety and residues I846 and L843 [41].
This is evident by a negligible current at negative potentials and a linear intensification of the ohmic current at positive voltages. When applying compound 34 at a concentration of […], a noticeable reduction in menthol-induced activity at depolarizing voltages was observed (indicated by the red line) compared to menthol alone. Dose–response relationships for both tested compounds were established through triplicate experiments at various concentrations, applying a holding voltage of −60 mV (as shown in Figure 2B).
as §1
Figure 2 Compound 34 blocks TRPM8-mediated responses evoked by menthol in rTRPM8-expressing HEK293 cells. (A) IV curves obtained after exposure to vehicle solution (green trace), 100 µM menthol (blue trace) and 100 µM menthol + 10 µM 34 (red trace). Peak current data were expressed as pA/pF (to allow comparison among different size cells). Each point is the mean ± SEM of n = 15. (B) Concentration/response curves for rTRPM8 current blockade by 34 at a holding voltage of −60 mV. […]

hTRPV1 = molecular target: T3, hTRPV1 (Homo sapiens, UniProt Q8NER1); test: TRPV1 channel Ca2+ microfluorimetry (capsaicin 30 nM); format: cell-based
T3 construct: Eurofins-CEREP or Eurofins-PANLABS (contract assay)
Excerpt: (§2) The effects of compound 34 have been evaluated on different ion channels and receptors implicated in pain-related processes to assess the selectivity for TRPM8 channels. First, some TRP channels that play a role in temperature integration and nociception were selected, including hTRPV1, hTRPV3, hTRPA1 and TRPM3. Additionally, the evaluation encompassed the hASIC3 channel with widespread distribution within the peripheral nervous system and contributions to the excitability of primary sensory neurons. In each instance, the compound was subjected to evaluation at a consistent concentration of 10 µM.
as §1

hASIC3 channel = molecular target: T4, hASIC3 channel (Homo sapiens, UniProt Q9UHC3); test: ASIC3 channel functional assay (buffer pH 5.5); format: cell-based
T4 construct: Eurofins-CEREP or Eurofins-PANLABS (contract assay)
T4 sequence (Q9UHC3 1-531): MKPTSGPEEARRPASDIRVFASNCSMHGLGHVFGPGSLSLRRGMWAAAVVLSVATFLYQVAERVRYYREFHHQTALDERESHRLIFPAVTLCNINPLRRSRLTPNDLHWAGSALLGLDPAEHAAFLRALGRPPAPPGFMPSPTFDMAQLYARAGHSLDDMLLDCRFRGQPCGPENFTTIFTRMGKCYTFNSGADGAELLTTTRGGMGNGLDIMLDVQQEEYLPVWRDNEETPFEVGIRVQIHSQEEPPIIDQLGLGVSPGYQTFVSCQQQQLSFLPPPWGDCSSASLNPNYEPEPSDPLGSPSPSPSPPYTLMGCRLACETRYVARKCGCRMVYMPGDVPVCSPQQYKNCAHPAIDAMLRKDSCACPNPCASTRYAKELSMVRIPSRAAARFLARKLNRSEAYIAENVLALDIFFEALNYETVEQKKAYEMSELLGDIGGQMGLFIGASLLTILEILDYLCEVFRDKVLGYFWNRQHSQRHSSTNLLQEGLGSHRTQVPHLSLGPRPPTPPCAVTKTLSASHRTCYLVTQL
Excerpt: as §2, §1

hCGRPR = hCGRPR (Homo sapiens, UniProt O60894+Q16602); test: Radioligand binding at CGRP receptor; conditions: radioligand [125]hGCRPα
Excerpt: (§3) Furthermore, the investigation extended to measuring the binding affinity of compound 34 to calcitonin gene-related peptide hCGRPR, cannabinoid hCB2 and muscarinic hM3 receptors, which are all relevant to different pain conditions.

hCB2 = hCB2 (Homo sapiens, UniProt P34972); test: Radioligand binding at cannabinoid CB2 receptor; conditions: radioligand [3H]WIN 55212-2
Excerpt: as §3

hM3 = hM3 (Homo sapiens, UniProt P20309); test: Radioligand binding at muscarinic M3 receptor; conditions: radioligand [3H]4-DMAP
Excerpt: as §3

T3 sequence (Q8NER1 whole entry): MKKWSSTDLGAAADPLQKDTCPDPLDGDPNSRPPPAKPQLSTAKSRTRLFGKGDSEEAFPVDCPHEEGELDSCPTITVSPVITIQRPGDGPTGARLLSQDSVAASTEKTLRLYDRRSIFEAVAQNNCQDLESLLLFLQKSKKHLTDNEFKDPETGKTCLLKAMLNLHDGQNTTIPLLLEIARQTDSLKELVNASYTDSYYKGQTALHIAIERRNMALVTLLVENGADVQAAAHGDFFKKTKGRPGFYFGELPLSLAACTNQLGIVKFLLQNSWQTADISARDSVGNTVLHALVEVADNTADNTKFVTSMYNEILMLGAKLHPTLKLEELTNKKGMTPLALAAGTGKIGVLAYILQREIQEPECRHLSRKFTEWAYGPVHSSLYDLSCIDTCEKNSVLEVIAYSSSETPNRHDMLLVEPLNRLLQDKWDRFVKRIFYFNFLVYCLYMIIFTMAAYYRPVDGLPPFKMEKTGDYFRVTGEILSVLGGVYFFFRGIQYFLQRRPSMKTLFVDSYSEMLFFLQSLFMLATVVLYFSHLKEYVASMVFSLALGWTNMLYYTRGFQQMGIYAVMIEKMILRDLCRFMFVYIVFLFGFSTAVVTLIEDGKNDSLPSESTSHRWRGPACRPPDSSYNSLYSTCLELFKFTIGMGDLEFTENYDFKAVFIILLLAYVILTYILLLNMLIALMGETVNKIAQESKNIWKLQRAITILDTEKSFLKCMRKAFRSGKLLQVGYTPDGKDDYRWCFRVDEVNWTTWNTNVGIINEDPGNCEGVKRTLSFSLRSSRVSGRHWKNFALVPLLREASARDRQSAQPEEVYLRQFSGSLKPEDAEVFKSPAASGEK
T1 sequence (Q8R455 whole entry): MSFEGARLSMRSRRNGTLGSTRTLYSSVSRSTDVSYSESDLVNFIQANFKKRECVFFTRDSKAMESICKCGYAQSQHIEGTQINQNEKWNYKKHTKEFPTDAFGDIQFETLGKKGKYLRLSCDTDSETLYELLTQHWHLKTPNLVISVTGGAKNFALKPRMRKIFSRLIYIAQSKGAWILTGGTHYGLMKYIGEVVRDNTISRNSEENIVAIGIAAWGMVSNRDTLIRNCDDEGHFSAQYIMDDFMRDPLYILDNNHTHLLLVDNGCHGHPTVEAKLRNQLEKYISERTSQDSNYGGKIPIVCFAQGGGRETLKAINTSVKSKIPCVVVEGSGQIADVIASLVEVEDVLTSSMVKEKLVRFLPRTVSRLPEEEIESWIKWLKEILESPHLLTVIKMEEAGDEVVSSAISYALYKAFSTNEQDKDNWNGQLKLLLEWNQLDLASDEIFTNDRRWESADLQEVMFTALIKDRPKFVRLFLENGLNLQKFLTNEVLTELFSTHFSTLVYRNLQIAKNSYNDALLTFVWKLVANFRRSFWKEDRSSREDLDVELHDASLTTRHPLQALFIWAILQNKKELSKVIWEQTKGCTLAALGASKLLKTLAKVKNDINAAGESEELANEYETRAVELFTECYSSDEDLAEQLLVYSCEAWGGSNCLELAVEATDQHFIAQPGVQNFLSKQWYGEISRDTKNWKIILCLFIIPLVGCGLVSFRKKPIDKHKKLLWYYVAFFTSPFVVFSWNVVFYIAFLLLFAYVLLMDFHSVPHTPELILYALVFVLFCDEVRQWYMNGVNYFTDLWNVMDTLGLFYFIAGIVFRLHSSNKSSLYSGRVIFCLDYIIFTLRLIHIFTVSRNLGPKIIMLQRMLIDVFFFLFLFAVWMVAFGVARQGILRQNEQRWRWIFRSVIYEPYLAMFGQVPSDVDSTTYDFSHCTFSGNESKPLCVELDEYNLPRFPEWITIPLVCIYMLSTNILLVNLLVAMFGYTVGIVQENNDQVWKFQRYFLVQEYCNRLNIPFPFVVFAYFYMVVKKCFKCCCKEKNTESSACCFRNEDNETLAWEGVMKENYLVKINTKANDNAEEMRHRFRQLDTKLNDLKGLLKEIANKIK
T2 sequence (Q8R455 whole entry): as above
Chain of hCGRPR (Q16602 23-461): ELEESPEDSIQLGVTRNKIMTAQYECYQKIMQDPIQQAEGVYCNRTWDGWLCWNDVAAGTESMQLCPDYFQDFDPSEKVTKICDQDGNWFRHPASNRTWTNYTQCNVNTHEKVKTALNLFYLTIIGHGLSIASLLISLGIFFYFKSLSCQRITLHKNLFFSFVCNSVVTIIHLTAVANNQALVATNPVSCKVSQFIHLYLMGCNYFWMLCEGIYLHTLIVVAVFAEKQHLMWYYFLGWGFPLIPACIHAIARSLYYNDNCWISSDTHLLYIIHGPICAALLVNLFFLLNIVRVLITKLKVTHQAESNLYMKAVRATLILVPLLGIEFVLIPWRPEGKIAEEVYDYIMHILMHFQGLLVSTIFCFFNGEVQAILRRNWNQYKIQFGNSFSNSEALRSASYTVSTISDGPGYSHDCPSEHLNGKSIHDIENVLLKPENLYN
Chain of hCGRPR (O60894 27-148): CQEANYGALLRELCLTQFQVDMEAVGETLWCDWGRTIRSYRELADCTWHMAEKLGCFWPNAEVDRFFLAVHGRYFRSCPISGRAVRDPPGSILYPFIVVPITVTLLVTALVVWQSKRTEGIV
Chain of hCB2 (P34972 whole entry): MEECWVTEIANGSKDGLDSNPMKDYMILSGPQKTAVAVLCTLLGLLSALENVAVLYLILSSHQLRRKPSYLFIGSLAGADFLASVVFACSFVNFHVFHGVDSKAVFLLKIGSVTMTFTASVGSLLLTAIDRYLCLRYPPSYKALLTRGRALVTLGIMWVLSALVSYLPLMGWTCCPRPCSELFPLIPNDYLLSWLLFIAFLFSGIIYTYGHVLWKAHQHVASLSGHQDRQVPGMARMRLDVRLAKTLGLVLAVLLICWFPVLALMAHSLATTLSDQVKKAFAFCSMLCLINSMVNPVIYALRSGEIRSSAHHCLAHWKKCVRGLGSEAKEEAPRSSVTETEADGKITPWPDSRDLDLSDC
Chain of hM3 (P20309 whole entry): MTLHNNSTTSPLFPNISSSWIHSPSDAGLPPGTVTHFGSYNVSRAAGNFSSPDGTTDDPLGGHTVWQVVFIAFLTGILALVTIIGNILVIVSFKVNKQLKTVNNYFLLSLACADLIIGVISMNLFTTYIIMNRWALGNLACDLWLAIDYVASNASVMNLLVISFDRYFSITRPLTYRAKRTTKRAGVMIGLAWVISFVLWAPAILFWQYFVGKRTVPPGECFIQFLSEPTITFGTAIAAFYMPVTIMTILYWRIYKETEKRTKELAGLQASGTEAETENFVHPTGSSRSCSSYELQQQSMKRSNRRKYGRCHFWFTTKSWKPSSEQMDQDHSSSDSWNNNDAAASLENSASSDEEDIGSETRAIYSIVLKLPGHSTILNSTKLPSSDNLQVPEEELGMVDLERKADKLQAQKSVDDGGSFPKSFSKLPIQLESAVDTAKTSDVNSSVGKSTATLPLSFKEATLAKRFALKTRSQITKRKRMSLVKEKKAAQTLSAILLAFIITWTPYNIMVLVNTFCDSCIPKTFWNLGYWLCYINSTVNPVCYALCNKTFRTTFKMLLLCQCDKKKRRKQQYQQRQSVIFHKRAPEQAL

CC(C)CNC(=O)[C@]1(Cc2ccccc2)[C@H](C)C(=O)N1C[C@H](Cc1ccccc1)N(Cc1ccccc1)Cc1ccccc1 [Compound 34, 4S-Benzyl-4-[N-(iso-butyl)-carbamoyl]-3S-methyl-1-[(2′S-dibenzylamino-3′-phenyl)prop-1′-yl]-2-oxoazetidine]
IC50 [1]: 300 nM | IC50 (rTRPM8): 160 nM | activation on the TRPV1 channel (hTRPV1; 10 µM): did not show activation | inhibition at 10 µM (hTRPV1; 10 μM, agonist capsaicin 30 nM): 8.9 ± 2.9% | inhibition at 10 µM (hASIC3 channel): 2.2 ± 9.6% | inhibition at 10 µM (hCGRPR): -11.9 ± 5.2% | inhibition at 10 µM (hCB2): 7 ± 2.1% | inhibition at 10 µM (hM3): 5.2 ± 3.2%
